Source: patent US11472791B2 (Incyte Corporation, priority 2019, dated 2022)

Biological target: CDK2/Cyclin E1 (Homo sapiens (Human), UniProt P24941)
Experiment: CDK2/Cyclin E1 HTRF enzyme activity assay
Assay type: biochemical
Conditions: 1 mM ATP
Procedure: Assays are conducted in white 384-well polystyrene plates in a final reaction volume of 8 μL. […] HTRF signals are read after 1 hour at room temperature on a PHERAstar FS plate reader (BMG Labtech). Data is analyzed with IDBS XLFit and GraphPad Prism 5.0 software using a three or four parameter dose response curve to determine IC50 for each compound.

IC50, < 0.05 µM:
[2H]C([2H])([2H])NCc1ccc(-n2cc(-c3nc(NC4CCN(S(C)(=O)=O)CC4)ncc3C(F)(F)F)cn2)c(C)c1 [Example 128, 4-(1-(2-Methyl-4-(((methyl-d3)amino)methyl)phenyl)-1H-pyrazol-4-yl)-N-(1-(methylsulfonyl)piperidin-4-yl)-5-(trifluoromethyl)pyrimidin-2-amine]
COC(=O)NCC1(NCc2ccc(-n3cc(-c4nc(NC5CCN(S(C)(=O)=O)CC5)ncc4C#N)cn3)c(Cl)c2)CCCC1 [Example 282, Methyl ((1-((3-chloro-4-(4-(5-cyano-2-((1-(methylsulfonyl)piperidin-4-yl)amino)pyrimidin-4-yl)-1H-pyrazol-1-yl)benzyl)amino)cyclopentyl)methyl)carbamate]
Cn1cnc(S(=O)(=O)N2CCC(Nc3ncc(C#N)c(-c4cnn(CC(F)(F)F)c4)n3)CC2)c1 [Example 38, 2-((1-((1-Methyl-1H-imidazol-4-yl)sulfonyl)piperidin-4-yl)amino)-4-(1-(2,2,2-trifluoroethyl)-1H-pyrazol-4-yl)pyrimidine-5-carbonitrile]
Cc1cc(CN2CCN(C)C(=O)C2)ccc1-n1cc(-c2nc(NC3CCN(S(=O)(=O)c4cn(C)cn4)CC3)ncc2C(F)(F)F)cn1 [Example 237, 1-Methyl-4-(3-methyl-4-(4-(2-((1-((1-methyl-1H-imidazol-4-yl)sulfonyl)piperidin-4-yl)amino)-5-(trifluoromethyl)pyrimidin-4-yl)-1H-pyrazol-1-yl)benzyl)piperazin-2-one]
CCN(CC)CCCS(=O)(=O)N1CCC(Nc2ncc(C(F)(F)F)c(-c3cnn(CC(C)(C)O)c3)n2)CC1 [Example 64, 1-(4-(2-((1-((3-(Diethylamino)propyl)sulfonyl)piperidin-4-yl)amino)-5-(trifluoromethyl)pyrimidin-4-yl)-1H-pyrazol-1-yl)-2-methylpropan-2-ol]
[2H]C([2H])([2H])NCc1ccc(-n2cc(-c3nc(NC4CCN(S(C)(=O)=O)CC4)ncc3Cl)cn2)c(Cl)c1 [Example 134, 5-Chloro-4-(1-(2-chloro-4-(((methyl-d3)amino)methyl)phenyl)-1H-pyrazol-4-yl)-N-(1-(methylsulfonyl)piperidin-4-yl)pyrimidin-2-amine]
CNCc1ccc(-n2cc(-c3nc(N[C@H]4CCN(S(C)(=O)=O)C[C@H]4F)ncc3C#N)cn2)c(Cl)c1 [Example 116, 4-(1-(2-Chloro-4-((methylamino)methyl)phenyl)-1H-pyrazol-4-yl)-2-(((3R,4S)-3-fluoro-1-(methylsulfonyl)piperidin-4-yl)amino)pyrimidine-5-carbonitrile]
Cc1nc(CNC(C)C)ccc1-n1cc(-c2nc(NC3CCN(S(=O)(=O)c4cn(C)cn4)CC3)ncc2C(F)(F)F)cn1 [Example 275, 4-(1-(6-((Isopropylamino)methyl)-2-methylpyridin-3-yl)-1H-pyrazol-4-yl)-N-(1-((1-methyl-1H-imidazol-4-yl)sulfonyl)piperidin-4-yl)-5-(trifluoromethyl)pyrimidin-2-amine]
CS(=O)(=O)N1CCC(Nc2ncc(C#N)c(-c3cnn(-c4ccc(CN[C@H]5CC[C@](C)(O)CC5)cc4Cl)c3)n2)CC1 [Example 174, 4-(1-(2-Chloro-4-((((1r,4r)-4-hydroxy-4-methylcyclohexyl)amino)methyl)phenyl)-1H-pyrazol-4-yl)-2-((1-(methylsulfonyl)piperidin-4-yl)amino)pyrimidine-5-carbonitrile]
CC(C)(O)Cn1cc(-c2nc(N[C@H]3CCN(S(=O)(=O)CCCN4CCOCC4)C[C@H]3F)ncc2C(F)(F)F)cn1 [Example 201, 1-(4-(2-(((3R,4S)-3-Fluoro-1-((3-morpholinopropyl)sulfonyl)piperidin-4-yl)amino)-5-(trifluoromethyl)pyrimidin-4-yl)-1H-pyrazol-1-yl)-2-methylpropan-2-ol]
CCN1CCN(Cc2ccc(-n3cc(-c4nc(NC5CCN(S(=O)(=O)c6cn(C)cn6)CC5)ncc4C(F)(F)F)cn3)c(C)c2)CC1 [Example 235, 4-(1-(4-((4-Ethylpiperazin-1-yl)methyl)-2-methylphenyl)-1H-pyrazol-4-yl)-N-(1-((1-methyl-1H-imidazol-4-yl)sulfonyl)piperidin-4-yl)-5-(trifluoromethyl)pyrimidin-2-amine]
Cc1nc(CN2CCN(C)CC2)ccc1-n1cc(-c2nc(NC3CCN(S(=O)(=O)c4cn(C)cn4)CC3)ncc2Cl)cn1 [Example 249, 5-Chloro-N-(1-((1-methyl-1H-imidazol-4-yl)sulfonyl)piperidin-4-yl)-4-(1-(2-methyl-6-((4-methylpiperazin-1-yl)methyl)pyridin-3-yl)-1H-pyrazol-4-yl)pyrimidin-2-amine]
Cc1cc(CN2CCN(CC3CC3)CC2)ccc1-n1cc(-c2nc(NC3CCN(S(=O)(=O)c4cn(C)cn4)CC3)ncc2C(F)(F)F)cn1 [Example 236, 4-(1-(4-((4-(Cyclopropylmethyl)piperazin-1-yl)methyl)-2-methylphenyl)-1H-pyrazol-4-yl)-N-(1-((1-methyl-1H-imidazol-4-yl)sulfonyl)piperidin-4-yl)-5-(trifluoromethyl)pyrimidin-2-amine]
CN1CCN(Cc2ccc(-n3cc(-c4nc(NC5CCN(S(=O)(=O)c6ccccn6)CC5)ncc4C#N)cn3)c(Cl)c2)CC1 [Example 258, 4-(1-(2-Chloro-4-((4-methylpiperazin-1-yl)methyl)phenyl)-1H-pyrazol-4-yl)-2-((1-(pyridin-2-ylsulfonyl)piperidin-4-yl)amino)pyrimidine-5-carbonitrile]
Cn1cnc(S(=O)(=O)N2CCC(Nc3ncc(C(F)(F)F)c(-c4cnn(CC(F)F)c4)n3)CC2)c1 [Example 31, 4-(1-(2,2-Difluoroethyl)-1H-pyrazol-4-yl)-N-(1-((1-methyl-1H-imidazol-4-yl)sulfonyl)piperidin-4-yl)-5-(trifluoromethyl)pyrimidin-2-amine]
CC(C)(O)Cn1cc(-c2nc(NC3CCN(S(=O)(=O)C4CC4)CC3)ncc2Cl)cn1 [Example 56, 1-(4-(5-Chloro-2-((1-(cyclopropylsulfonyl)piperidin-4-yl)amino)pyrimidin-4-yl)-1H-pyrazol-1-yl)-2-methylpropan-2-ol]
CC(C)(O)Cn1cc(-c2nc(NC3CCN(S(=O)(=O)CCCN4C[C@@H]5C[C@H]4CO5)CC3)ncc2C(F)(F)F)cn1 [Example 222, 1-(4-(2-((1-((3-((1S,4S)-2-Oxa-5-azabicyclo[2.2.1]heptan-5-yl)propyl)sulfonyl)piperidin-4-yl)amino)-5-(trifluoromethyl)pyrimidin-4-yl)-1H-pyrazol-1-yl)-2-methylpropan-2-ol]
CS(=O)(=O)N1CCC(Nc2ncc(C#N)c(-c3cnn(-c4ccc(CN[C@H]5CC[C@@](C)(O)CC5)cc4Cl)c3)n2)CC1 [Example 173, 4-(1-(2-Chloro-4-((((1s,4s)-4-hydroxy-4-methylcyclohexyl)amino)methyl)phenyl)-1H-pyrazol-4-yl)-2-((1-(methylsulfonyl)piperidin-4-yl)amino)pyrimidine-5-carbonitrile]
CCS(=O)(=O)N1CCC(Nc2ncc(C(F)(F)F)c(-c3cnn(-c4ccc(CN5CCN(C)CC5)cc4C)c3)n2)CC1 [Example 233, N-(1-(Ethylsulfonyl)piperidin-4-yl)-4-(1-(2-methyl-4-((4-methylpiperazin-1-yl)methyl)phenyl)-1H-pyrazol-4-yl)-5-(trifluoromethyl)pyrimidin-2-amine]
C[C@@H]1CN(S(=O)(=O)c2cn(C)cn2)CC[C@@H]1Nc1ncc(C(F)(F)F)c(-c2cnn(CC(C)(C)O)c2)n1 [Example 61, 2-Methyl-1-(4-(2-(((3R,4S)-3-methyl-1-((1-methyl-1H-imidazol-4-yl)sulfonyl)piperidin-4-yl)amino)-5-(trifluoromethyl)pyrimidin-4-yl)-1H-pyrazol-1-yl)propan-2-ol]
CS(=O)(=O)N1CCC(Nc2ncc(C#N)c(-c3cnn(-c4ccc(CNC5CCC(C#N)CC5)cc4Cl)c3)n2)CC1 (stereo not drawn) [Example 183, 4-(1-(2-Chloro-4-(((4-cyanocyclohexyl)amino)methyl)phenyl)-1H-pyrazol-4-yl)-2-((1-(methylsulfonyl)piperidin-4-yl)amino)pyrimidine-5-carbonitrile]
Cc1cc(CN2CCN(C)CC2)ccc1-n1cc(-c2nc(N[C@H]3CCN(S(=O)(=O)c4cn(C)cn4)C[C@H]3F)ncc2C(F)(F)F)cn1 [Example 102, N-((3R,4S)-3-Fluoro-1-((1-methyl-1H-imidazol-4-yl)sulfonyl)piperidin-4-yl)-4-(1-(2-methyl-4-((4-methylpiperazin-1-yl)methyl)phenyl)-1H-pyrazol-4-yl)-5-(trifluoromethyl)pyrimidin-2-amine]
CC(C)(O)Cn1cc(-c2nc(NC3CCN(S(=O)(=O)CCO)CC3)ncc2C(F)(F)F)cn1 [Example 227, 1-(4-(2-((1-((2-Hydroxyethyl)sulfonyl)piperidin-4-yl)amino)-5-(trifluoromethyl)pyrimidin-4-yl)-1H-pyrazol-1-yl)-2-methylpropan-2-ol]
CS(=O)(=O)N1CCC(Nc2ncc(C#N)c(-c3cnn(-c4ccc(CNCCOC(F)(F)F)cc4Cl)c3)n2)CC1 [Example 199, 4-(1-(2-Chloro-4-(((2-(trifluoromethoxy)ethyl)amino)methyl)phenyl)-1H-pyrazol-4-yl)-2-((1-(methylsulfonyl)piperidin-4-yl)amino)pyrimidine-5-carbonitrile]
